From US10501516B2, “Peptide compound” (TAKEDA PHARMACEUTICAL COMPANY LIMITED, priority 2016, dated 2019) come the findings set out here.

Square brackets hold non-standard residues; d marks the D form. Side chains are listed from the residue outwards. Peptide text beside a SMILES is read from it. * marks the point of attachment. C18 diacid = O=C(O)CCCCCCCCCCCCCCCCC(=O)*; NMeY = CN[C@@H](Cc1ccc(O)cc1)C(=O)O; Palmitoyl = CCCCCCCCCCCCCCCC(=O)*; αMeF = C[C@](N)(Cc1ccccc1)C(=O)O; Iva = CC[C@](C)(N)C(=O)O; Aib = CC(C)(N)C(=O)O

By EC50 is commonly meant the concentration at which the effect is half-maximal.

The target of assay [1] is T1, human GIPR (Homo sapiens, UniProt P48546).
T1 construct: expressed in transfected cells; host or cells: CHO-K1 Cre-luc reporter cells (hGIPR/CHO-K1, also called hGIPR/CRE-LUC/CHO-K1)
T1 sequence (P48546 22-466): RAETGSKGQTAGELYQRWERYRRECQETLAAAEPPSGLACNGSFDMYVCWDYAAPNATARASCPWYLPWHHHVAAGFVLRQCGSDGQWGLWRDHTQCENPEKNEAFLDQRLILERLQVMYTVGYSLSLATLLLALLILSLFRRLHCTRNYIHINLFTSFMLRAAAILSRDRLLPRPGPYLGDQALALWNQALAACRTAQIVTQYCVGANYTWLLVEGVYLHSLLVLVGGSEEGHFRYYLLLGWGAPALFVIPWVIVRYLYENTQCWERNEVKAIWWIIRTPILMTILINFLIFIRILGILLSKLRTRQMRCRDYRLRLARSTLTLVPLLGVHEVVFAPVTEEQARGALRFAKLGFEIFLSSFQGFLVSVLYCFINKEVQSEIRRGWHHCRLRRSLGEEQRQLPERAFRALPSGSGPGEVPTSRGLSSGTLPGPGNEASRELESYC
The assay can be described thus: Reporter assay of human GIPR gene (agonist activity, intracellular cAMP as index). It is filed as cell-based. The settings on record: Cre-luc reporter, hGIPR/CHO-K1 cells, 4 hours. The text has this: Evaluation of Agonist Activity Against Human NPY2R, Human GIPR, and Human GLP-1R Using Change in Intracellular cAMP Concentration as Index
The human GIPR gene having a sequence identical to the sequence of GenBank Accession No. U39231 was cloned into pMSRα-neo vector to prepare hGIPR/pMSRα-neo. This vector was introduced to the Cre-luc reporter cells obtained in (1) to obtain transformants. Next, a cell line induced to express luciferase, i.e., hGIPR/CHO-K1 cells, were selected from the obtained transformants by the addition of GIP.
The hGIPR/CRE-LUC/CHO-K1 cells or the hGLP-1R/Crel cells were inoculated at a cell density of 25 μL/well (5,000 cells/well) to a 384-well white plate (Corning, 3570), and cultured overnight in Ham F12 medium containing 10% fetal bovine serum, 100 U/mL penicillin and 100 μg/mL streptomycin in a CO2 incubator of 37° C. On the next day, a medium containing a test compound was added at a concentration of 5 μL/well to the cells, and the resultant cells were incubated for 4 hours in a CO2 incubator of 37° C. to give the final concentration of 1 μM. SteadyGlo (Promega) was added thereto at a concentration of 30 μL/well, and the mixture was shaken with light shielded. After 30 minutes, the luciferase activity was measured using a plate reader Envision (PerkinElmer). For the GIPR agonist activity, the luciferase activity in the presence of 10 μM GIP was defined as 100%, and the luciferase activity from the addition of DMSO instead of the test compound was defined as 0%. The GIPR agonist activity was calculated with a rise in intracellular cAMP concentration as an index.

Assay [2] concerns male C57BL/6J mouse. The assay can be described thus: Evaluation of feeding suppressive action in mice. It is filed as in vivo. The note with it: 30 nmol/kg s.c. once a day for 3 days; 3-days cumulative food consumption vs solvent control. As to the method: The feeding suppressive activity of a test compound was examined by the method described below.
The test compound was dissolved at a concentration of 30 or 100 nmol/2 mL in a solvent (10% DMSO-containing physiological saline). The test compound solution was subcutaneously administered at a dose of 2 mL/kg to the back of each male C57BL/6J mouse at 8-9 weeks of age (20-26° C., allowed to take food and water ad libitum; raised in the 12-hour bright-12-hour dark cycle). The administration was performed once a day for 3 days. After the administration, the mouse was individually raised in a rearing cage, and given previously weighed food; food consumption for 3 days after the start of administration was measured. The food consumption was calculated by subtracting the amount of remaining food from the weight of the food given on the day of the start of administration. When the food consumption of a control group receiving administration of the solvent alone was regarded as a suppression rate of 0%, the feeding suppressive activity of each test compound was evaluated on the basis of 3-days cumulative food consumption after the start of administration. The food intake suppression rate (%) of the test compound was defined as (Food consumption of the control group−Food consumption of the test compound-administered group)/Food consumption of the control group×100.

`CCCCCCCCCCCCCCCC(=O)NCC(=O)NCC(=O)NCC(=O)NCC(=O)NCCCC[C@H](NC(=O)[C@H](CC(=O)O)NC(=O)[C@H](CO)NC(=O)[C@@H](NC(=O)[C@](C)(Cc1ccccc1)NC(=O)[C@@H](NC(=O)CNC(=O)[C@H](CCC(=O)O)NC(=O)C(C)(C)NC(=O)[C@@H](N)Cc1ccc(O)cc1)[C@@H](C)O)[C@@H](C)O)C(=O)NC(C)(C)C(=O)N[C@H](C(=O)NC(C)(C)C(=O)N[C@@H](CC(C)C)C(=O)N[C@@H](CC(=O)O)C(=O)N[C@@H](CCCCN)C(=O)N[C@@H](CCC(N)=O)C(=O)N[C@@H](C)C(=O)N[C@@H](CCC(N)=O)C(=O)N[C@@](C)(CC)C(=O)N[C@@H](CCC(=O)O)C(=O)N[C@@H](Cc1ccccc1)C(=O)N[C@H](C(=O)N[C@@H](CCCNC(=N)N)C(=O)N[C@@H](Cc1c[nH]cn1)C(=O)N[C@@H](CC(C)C)C(=O)N[C@@H](CC(C)C)C(=O)N[C@@H](CC(N)=O)C(=O)N[C@@H](CCCCN)C(=O)NC(C)(C)C(=O)N[C@H](C(=O)N[C@@H](CCCNC(=N)N)C(=O)N[C@@H](CCC(N)=O)C(=O)N[C@@H](CCCNC(=N)N)C(=O)N[C@@H](Cc1ccc(O)cc1)C(N)=O)[C@@H](C)O)C(C)C)[C@@H](C)CC` [Example 27] (H-Y[Aib]EGT[αMeF]TSDK([Gly-Gly-Gly-Gly-Palmitoyl])[Aib]I[Aib]LDKQAQ[Iva]EFVRHLLNK[Aib]TRQRY-NH2): in assay [1], the EC50 was found to be 0.041 nM. Further, the “Rate of feeding suppression (%)” value in assay [2] is −41.6%.
The compound `CC[C@H](C)[C@H](NC(=O)[C@H](C)NC(=O)[C@H](CCCCNC(=O)CNC(=O)CNC(=O)CNC(=O)CNC(=O)CCCCCCCCCCCCCCCCC(=O)O)NC(=O)[C@H](CC(=O)O)NC(=O)[C@H](CO)NC(=O)[C@@H](NC(=O)[C@](C)(Cc1ccccc1)NC(=O)[C@@H](NC(=O)CNC(=O)[C@H](CCC(=O)O)NC(=O)C(C)(C)NC(=O)[C@H](Cc1ccc(O)cc1)NC)[C@@H](C)O)[C@@H](C)O)C(=O)NC(C)(C)C(=O)N[C@@H](CC(C)C)C(=O)N[C@@H](CC(=O)O)C(=O)N[C@@H](CCCCN)C(=O)N[C@@H](CCC(N)=O)C(=O)N[C@@H](CCCNC(=N)N)C(=O)N[C@@H](CCC(N)=O)C(=O)N[C@@](C)(CC)C(=O)N[C@@H](CCC(=O)O)C(=O)N[C@@H](Cc1ccccc1)C(=O)N[C@H](C(=O)N[C@@H](CCCNC(=N)N)C(=O)N[C@@H](Cc1c[nH]cn1)C(=O)N[C@@H](CC(C)C)C(=O)N[C@@H](CC(C)C)C(=O)N[C@@H](CC(N)=O)C(=O)N[C@@H](CCCCN)C(=O)NC(C)(C)C(=O)N[C@H](C(=O)N[C@@H](CCCNC(=N)N)C(=O)N[C@@H](CCC(N)=O)C(=O)N[C@@H](CCCNC(=N)N)C(=O)N[C@@H](Cc1ccc(O)cc1)C(N)=O)[C@@H](C)O)C(C)C` [Example 14] (H-[NMeY][Aib]EGT[αMeF]TSDK([Gly-Gly-Gly-Gly-C18 diacid])AI[Aib]LDKQRQ[Iva]EFVRHLLNK[Aib]TRQRY-NH2) yielded an EC50 in assay [1] of 0.17 nM.
On the same count and under the same terms, for `CC[C@H](C)[C@H](NC(=O)C(C)(C)NC(=O)[C@H](CCCCNC(=O)CNC(=O)CNC(=O)CNC(=O)CNC(=O)CCCCCCCCCCCCCCCCC(=O)O)NC(=O)[C@H](CC(=O)O)NC(=O)[C@H](CO)NC(=O)[C@@H](NC(=O)[C@](C)(Cc1ccccc1)NC(=O)[C@@H](NC(=O)CNC(=O)[C@H](CCC(=O)O)NC(=O)C(C)(C)NC(=O)[C@H](Cc1ccc(O)cc1)NC)[C@@H](C)O)[C@@H](C)O)C(=O)NC(C)(C)C(=O)N[C@@H](CC(C)C)C(=O)N[C@@H](CC(=O)O)C(=O)N[C@@H](CCCCN)C(=O)N[C@@H](CCC(N)=O)C(=O)N[C@@H](C)C(=O)N[C@@H](CCC(N)=O)C(=O)N[C@@](C)(CC)C(=O)N[C@@H](CCC(=O)O)C(=O)N[C@@H](Cc1ccccc1)C(=O)N[C@H](C(=O)N[C@@H](CCCNC(=N)N)C(=O)N[C@@H](Cc1c[nH]cn1)C(=O)N[C@@H](CC(C)C)C(=O)N[C@@H](CC(C)C)C(=O)N[C@@H](CC(N)=O)C(=O)N[C@@H](CCCCN)C(=O)NC(C)(C)C(=O)N[C@H](C(=O)N[C@@H](CCCNC(=N)N)C(=O)N[C@@H](CCC(N)=O)C(=O)N[C@@H](CCCNC(=N)N)C(=O)N[C@@H](Cc1ccc(O)cc1)C(N)=O)[C@@H](C)O)C(C)C` [Example 30] (H-[NMeY][Aib]EGT[αMeF]TSDK([Gly-Gly-Gly-Gly-C18 diacid])[Aib]I[Aib]LDKQAQ[Iva]EFVRHLLNK[Aib]TRQRY-NH2) the value was 0.074 nM.
Turning to `CCCCCCCCCCCCCCCC(=O)NCC(=O)NCC(=O)NCC(=O)NCC(=O)NCCCC[C@H](NC(=O)[C@H](CC(=O)O)NC(=O)[C@H](CO)NC(=O)[C@@H](NC(=O)[C@](C)(Cc1ccccc1)NC(=O)[C@@H](NC(=O)CNC(=O)[C@H](CCC(=O)O)NC(=O)C(C)(C)NC(=O)[C@H](Cc1ccc(O)cc1)NC)[C@@H](C)O)[C@@H](C)O)C(=O)N[C@@H](CO)C(=O)N[C@@H](CCCCN)C(=O)NC(C)(C)C(=O)N[C@@H](CC(C)C)C(=O)N[C@@H](CC(=O)O)C(=O)N[C@@H](CCCCN)C(=O)N[C@@H](CCC(N)=O)C(=O)N[C@@H](CCCNC(=N)N)C(=O)N[C@@H](CCC(N)=O)C(=O)N[C@@](C)(CC)C(=O)N[C@@H](CCC(=O)O)C(=O)N[C@@H](Cc1ccccc1)C(=O)N[C@H](C(=O)N[C@@H](CCCNC(=N)N)C(=O)N[C@@H](Cc1c[nH]cn1)C(=O)N[C@@H](CC(C)C)C(=O)N[C@@H](CC(C)C)C(=O)N[C@@H](CC(N)=O)C(=O)N[C@@H](CCCCN)C(=O)NC(C)(C)C(=O)N[C@H](C(=O)N[C@@H](CCCNC(=N)N)C(=O)N[C@@H](CCC(N)=O)C(=O)N[C@@H](CCCNC(=N)N)C(=O)N[C@@H](Cc1ccc(O)cc1)C(N)=O)[C@@H](C)O)C(C)C` [Example 25] (H-[NMeY][Aib]EGT[αMeF]TSDK([Gly-Gly-Gly-Gly-Palmitoyl])SK[Aib]LDKQRQ[Iva]EFVRHLLNK[Aib]TRQRY-NH2), in assay [2], the “Rate of feeding suppression (%)” value was −41.7%.
Same read-out and setting: then `CCCCCCCCCCCCCCCC(=O)NCC(=O)NCC(=O)NCC(=O)NCC(=O)NCCCC[C@H](NC(=O)[C@H](CC(=O)O)NC(=O)[C@H](CO)NC(=O)[C@@H](NC(=O)[C@](C)(Cc1ccccc1)NC(=O)[C@@H](NC(=O)CNC(=O)[C@H](CCC(=O)O)NC(=O)C(C)(C)NC(=O)[C@@H](N)Cc1ccc(O)cc1)[C@@H](C)O)[C@@H](C)O)C(=O)N[C@@H](C)C(=O)N[C@H](C(=O)NC(C)(C)C(=O)N[C@@H](CC(C)C)C(=O)N[C@@H](CCC(=O)O)C(=O)N[C@@H](CCCCN)C(=O)N[C@@H](CCC(N)=O)C(=O)N[C@@H](CCCNC(=N)N)C(=O)N[C@@H](CCC(N)=O)C(=O)N[C@@](C)(CC)C(=O)N[C@@H](CCC(=O)O)C(=O)N[C@@H](Cc1ccccc1)C(=O)N[C@H](C(=O)N[C@@H](CCCNC(=N)N)C(=O)N[C@@H](Cc1c[nH]cn1)C(=O)N[C@@H](CC(C)C)C(=O)N[C@@H](CC(C)C)C(=O)N[C@@H](CC(N)=O)C(=O)N[C@@H](CCCCN)C(=O)NC(C)(C)C(=O)N[C@H](C(=O)N[C@@H](CCCNC(=N)N)C(=O)N[C@@H](CCC(N)=O)C(=O)N[C@@H](CCCNC(=N)N)C(=O)N[C@@H](Cc1ccc(O)cc1)C(N)=O)[C@@H](C)O)C(C)C)[C@@H](C)CC` [Example 35] (H-Y[Aib]EGT[αMeF]TSDK([Gly-Gly-Gly-Gly-Palmitoyl])AI[Aib]LEKQRQ[Iva]EFVRHLLNK[Aib]TRQRY-NH2), with −52.6%.
